# Assay results from patent US12414959B2, “Glucose infusion solution composition” (priority 2017, dated 2025).
# Experiment: Preparation of clear sugar mixture solutions: clearness of dissolution
# Assay type: physicochemical
# Settings: added in an amount of two times the solubility until colorless, water for injection, room temperature
# Experimental: Then, each sugar was added to 2 ml of water for injection, and stirred at room temperature until a clear solution was obtained. […] In addition, a sample was prepared by doubling the amount of sample F1, and the clearness of the solution was observed (F2).
row,Structure (SMILES),clearness of dissolution
1,"O=C[C@H](O)[C@@H](O)[C@@H](O)[C@H](O)CO [Galactose, galactose]",clearly dissolved
2,"CC(=O)N[C@H]1[C@H]([C@H](O)[C@H](O)CO)OC(O)(C(=O)O)C[C@@H]1O (stereo partly drawn) [N-Acetyl neuraminic acid, N-acetylneuraminic acid]",not clearly dissolved

# Results, then the compound that gave them:
row,clearness of dissolution,Structure (SMILES)
1,clearly dissolved,"O=C[C@H](O)[C@@H](O)[C@H](O)[C@H](O)CO [Glucose, glucose]"
2,clearly dissolved,"C[C@H](O)[C@@H](O)[C@@H](O)[C@H](O)C=O [L-Fucose, L-fucose]"
3,clearly dissolved,"CC(=O)N[C@H]1C(O)O[C@H](CO)[C@H](O)[C@@H]1O (stereo partly drawn) [N-Acetyl galactosamine, N-acetylgalactosamine]"
4,clearly dissolved,"CC(=O)N[C@H]1C(O)O[C@H](CO)[C@@H](O)[C@@H]1O (stereo partly drawn) [N-Acetyl glucosamine, N-acetylglucosamine]"
5,not clearly dissolved,"O=C[C@H](O)[C@@H](O)[C@H](O)CO [Xylose, xylose]"

# Experiment: Stabilizer test (sodium bisulfite, EDTA-2Na dihydrate): color, pH and osmolality over 10 days
# Settings: not given
# Experimental: First, 200 μl of sample F6 was added to 1800 μl of water for injection, and then stirred at room temperature, thereby preparing six samples, each consisting of 2 ml of a 10-fold-diluted sugar solution (samples a, a-1, b, b-1, c and c-1).
# Next, the pH of each of the six samples was measured, and then adjusted with NaOH so as to be close to in vivo plasma pH 7.4.
# A 0.1% solution of sodium bisulfite was prepared by mixing 5 mg of sodium bisulfite as stabilizer with 5 ml of water for injection, and a 0.2% solution of EDTA-2Na dihydrate was prepared by mixing 10 mg of EDTA-2Na dihydrate with 5 ml of water for injection. Then, 110 μl of each of the prepared solutions was added to some of the six 10-fold-diluted sugar solutions.
row,Structure (SMILES),suitability as stabilizer for sample F6
1,"O.O.O=C([O-])CN(CCN(CC(=O)O)CC(=O)O)CC(=O)[O-].[Na+].[Na+] [EDTA-2NA dihydrate, disodium edetate dihydrate]",not suitable
2,O=S([O-])O.[Na+] [sodium bisulfite],not suitable

# Experiment: Preliminary experiment on amino acids excluded from the test
# Assay type: physicochemical
# Settings: not given
row,Structure (SMILES),initial osmolality variation when added
1,N[C@@H](CS)C(=O)O [cysteine],excessively high
2,N[C@@H](Cc1c[nH]c2ccccc12)C(=O)O [tryptophan],excessively high

# Experiment: not given
# Settings: cited from earlier work
Structure (SMILES),Solubility (Colorless): Solubility until colorless,Solubility (Maximum): A maximum of solubility
"O=C[C@H](O)[C@@H](O)[C@@H](O)[C@H](O)CO [Galactose, galactose]",100 mg/mL,683 mg/mL
"O=C[C@H](O)[C@@H](O)[C@H](O)[C@H](O)CO [Glucose, glucose]",133 mg/mL,
"C[C@H](O)[C@@H](O)[C@@H](O)[C@H](O)C=O [L-Fucose, L-fucose]",50 mg/mL,827 mg/mL
"CC(=O)N[C@H]1C(O)O[C@H](CO)[C@H](O)[C@@H]1O (stereo partly drawn) [N-Acetyl galactosamine, N-acetylgalactosamine]",50 mg/mL,100 mg/mL
"CC(=O)N[C@H]1C(O)O[C@H](CO)[C@@H](O)[C@@H]1O (stereo partly drawn) [N-Acetyl glucosamine, N-acetylglucosamine]",50 mg/mL,50 mg/mL
"CC(=O)N[C@H]1[C@H]([C@H](O)[C@H](O)CO)OC(O)(C(=O)O)C[C@@H]1O (stereo partly drawn) [N-Acetyl neuraminic acid, N-acetylneuraminic acid]",50 mg/mL,50 mg/mL
"O=C[C@H](O)[C@@H](O)[C@H](O)CO [Xylose, xylose]",50 mg/mL,100 mg/mL
